The text below walks through data of patent publication US20220031849A1, “NANOPARTICLE ENCAPSULATION TO TARGET G PROTEIN-COUPLED RECEPTORS IN ENDOSOMES” (TAKEDA PHARMACEUTICAL COMPANY LIMITED, priority 2018, published 2022).

Ends that are not written are not given here.

In one assay the test system is HEK-293 cells. The assay can be described thus: Uptake and disassembly of Coumarin 153 loaded nanoparticles. The format is cell-based. As to conditions: 30 min pre-incubation with inhibitor. From the text:
The uptake and disassembly of DIPMA nanoparticles loaded with Coumarin153 (DIPMA-CO), which emits in an aqueous environment but not in the hydrophobic core, were examined by high content imaging (confocal microscopy).
Uptake and disassembly of nanoparticles in HEK-293 cells. Coumarin 153 is a solvatochromic dye that fluoresces only in polar solvents, allowing detection of the release of Coumarin loaded in the core of nanoparticles observed as the appearance of Coumarin fluorescence in intact cells. nanoparticles were self-assembled using 0.5 mg of Coumarin 153 per mg of DIPMA polymer (DIPMA-CO). HEK-293 cells were pre-incubated for 30 min with vehicle (Hank's Balanced Salt Solution, HBSS), dynamin inhibitor (Dyngo4a, Dy4, 30 μM), clathrin inhibitor (Pitstop, PS2, 30 μM), vacuolar H^+ATPase inhibitor (Bafilomycin A1, BFA, 1 μM) or NH4Cl (20 mM) to alkalinize endosomes. Images were obtained with a Leica SP8 confocal microscope using HCX PL APO 63× (NA […]) oil objective. Images were taken every 10 see for 30 min, where the first 5 readings correspond to baseline images prior the addition of DIPMA-CO nanoparticles (20 μg/mL). All images were analyzed using Fiji.

Assay [1] deals with CFA-induced mechanical hyperalgesia. As to conditions: Proc. Natl. Acad. Sci. USA. 114(46):12309-12314; cited from earlier work.
Assay [2] relates to CFA-evoked mechanical hyperalgesia in mice. In words: Complete Freund's adjuvant-evoked mechanical hyperalgesia, von Frey filaments. The format is in vivo. As to conditions: for Inhibition of CFA hyperalgesia at 1.5 h: 5 μl i.t., 48 h after CFA.
The subject of assay [3] is SNS-evoked mechanical hyperalgesia in rats. In words: Sural nerve spared (SNS) mechanical hyperalgesia, Randall-Selitto. The class given is in vivo.
Assay [4] relates to C-fiber reflex and wind-up in SNS rats. The assay can be described thus: C-fiber-evoked nociceptive reflex and wind-up in SNS rats. The format is in vivo. As to conditions: 10 μl, 1 μM intrathecal.
In assay [5] the test system is chronic pain model in rats. In words: Chronic pain model by ligation of the sciatic nerve, Randall-Selitto (Example 10). As to conditions: 300 nM aprepitant, i.t. 10 μL. The format is in vivo. The text has this: The chronic pain model was induced by ligation of the sciatic nerve, allowing sensitisation to pain (allodynia, hyperalgesia) to develop for 10 days. Sensitisation was confirmed measuring baseline (pre-surgery) and post-surgery paw withdrawal using a Randall-Selitto electronic algesimeter (Eva Santos-Nogueira, et al. J Neurotrauma. 2012, 29(5): 898-904). […] As is evident, aprepitant-loaded nanoparticles provide greater analgesia and longer lasting effects.

The test system of assay [6] is NK1R-positive lamina I neurons. The assay can be described thus: Cell-attached patch clamp of SP-induced excitation in rat spinal cord slices. As to conditions: 100 nM AP preincubation, washed; SP 1 μM, 2 min. The format is cell-based. As to the method:
The firing time was determined as the duration of the response to last action potential.
(The patch-clamp technique gives a direct electrical read-out from membranes.)

For assay [7], the system named is capsaicin-evoked mechanical allodynia in mice. In words: Capsaicin-evoked mechanical allodynia, von Frey filaments. The format is in vivo. As to conditions: for Time at which the effect is lost / not detected: i.t. As to the method:
However, the same behaviour on the decay of the effect was observed.
AP, nanoparticles or vehicle (5 μl) was administered by intrathecal injection to mice 30 min before intraplantar injection to the hind paw of capsaicin, which activates TRPV1 to cause acute allodynia and neurogenic inflammation. Withdrawal responses to stimulation of the plantar surface of the injected hindpaw with calibrated von Frey filaments (VFF) were measured before and after capsaicin. In mice receiving vehicle or DIPMA-empty nanoparticles, capsaicin decreased the VFF threshold from 0.5-4 h, consistent with mechanical allodynia, which returned to baseline after 24 h (FIG. 18B).
Drug administration. Mice. […] Rats. […] Treatments were administered 10 days after sural nerve transection.
Acute pain. Capsaicin (CAP, 5 μg) or vehicle (0.9% NaCl) was administered by subcutaneous intraplantar (i.pl.) injection (10 μL) into the left hindpaw of sedated mice (2% isoflurane) 30 min after i.t. injection of drugs.
Mechanical allodynia and hyperalgesia. Mechanical nociception was assessed by measuring withdrawal thresholds to stimulation of the plantar surfaces of the ipsilateral and contralateral hindpaws with calibrated von Frey filaments (VFF). Prior to experiments, mice were acclimatized to the experimental apparatus and environment for 2 h on 2 successive days. VFF withdrawal thresholds were measured in triplicate to establish a baseline for each mouse. For the CAP model, VFF withdrawal thresholds were measured at 30 min intervals for the first 2 h after i.t. drug administration, then at 60 min intervals for the next 2 h, and finally after 24 h. For the CFA model, VFF withdrawal thresholds were measured every 30 min for the first 3 h after i.t. drug administration, then at 60 min intervals for the next 5 h, and finally after 24 h. Results were normalized to the baseline withdrawal thresholds of each mouse.

Take `O=C1NC(=NS(=O)(=O)c2cccc3ccccc23)S/C1=C\c1ccc(Br)cc1` [PitStop2]: the “Effect of inhibitor on cellular fluorescence of DIPMA-CO nanoparticles” value (“Effect of inhibitor” for short) in the assay on HEK-293 cells is on record as “inhibited the accumulation of Coumarin 153 cellular fluorescence”.
As for “CGRP8-37: a membrane-impermeant CLR antagonist (VTHRLAGLLSRSGGVVKNNFVPTNVGSKAF; ends and bridges not checked; UniProt P06881 90-119, looked up, fragment)”, in assay [1], the “Reversal of mechanical hyperalgesia” value is “not”.
For “CGRP8-37-Chol: cholestanol conjugate of CGRP8-37 (VTHRLAGLLSRSGGVVKNNFVPTNVGSKAF; ends and bridges not checked; also: cholestanol conjugate; UniProt P06881 90-119, looked up, fragment)”, in assay [1], the “Reversal of mechanical hyperalgesia” value is on record as ~20%.
On to `O=C(N/N=C/c1cc(O)c(O)cc1O)c1cc2ccccc2cc1O` [Dyngo4a], for which the “Effect of inhibitor” value in the assay with HEK-293 cells is on record as “inhibited the accumulation of Coumarin 153 cellular fluorescence”.
With `CN1CC[C@]23c4c5ccc(O)c4O[C@H]2[C@@H](O)C=C[C@H]3[C@H]1C5` [morphine], in assay [2] (3 mg/kg, i.p.), the “Effect on mechanical hyperalgesia after 0.5 h” value is “fully reversed the mechanical hyperalgesia” and the “Time at which the effect waned to baseline” value is reported as 3 h. Besides, in assay [3] (morphine), the “Duration of full reversal of hyperalgesia” value was found to be 2 h and the “Time after which the effect was absent” value was 2.5 h.
For `C[C@@H](O[C@H]1OCCN(Cc2nc(=O)[nH][nH]2)[C@H]1c1ccc(F)cc1)c1cc(C(F)(F)F)cc(C(F)(F)F)c1` [aprepitant, 5-([(2R,3S)-2-((R)-1-[3,5-Bis(trifluoromethyl)phenyl]ethoxy)-3-(4-fluorophenyl)morpholino]methyl)-1H-1,2,4-triazol-3(2H)-one], in assay [4], the “Effect on C-reflex” value is “decreased the C-reflex, but only at 30 min” and the Effect on wind-up entry is recorded as “did not affect wind-up”. Also, the “Inhibition of CFA hyperalgesia at 1.5 h” value in assay [2] (100 nM AP) was found to be 30±6%. Further, in assay [2] (300 nM AP), the “Inhibition of CFA hyperalgesia at 1.5 h” value was found to be 47±3%. In addition, the “Duration of reversal of hyperalgesia” value in assay [2] (free AP 100 or 300 nM, DIPMA-AP 100 nM AP, i.t.) was 2 to 3 h. In assay [5], the Duration of effect turned out to be 2 h; the “Improvement in pressure, Randall-Selitto” value turned out to be 20 g; the Pain recovery is on record as ~25%. The “Effect on SP-induced firing of spinal neurons” value in assay [6] is given as “did not affect the onset, rate or duration of SP-induced firing”. In addition, in assay [3] (10 μl i.t., 100 nM, 10 days after SNS), the “Effect on withdrawal threshold” value is “did not modify withdrawal threshold”. Besides, the “Maximum inhibition of hyperalgesia, after 1 h” value in assay [3] (10 μl i.t., 300 nM) was 40±2%. In assay [3] (i.t., 300 nM), the “Time of return to baseline” value is 2.5 h. Moreover, in assay [3] (i.t., 1 μM), the “Inhibition of hyperalgesia after 1 h” value was determined as 75±4% and the “Time of return to baseline” value worked out at 3 h. Further, the “Inhibition of capsaicin-evoked allodynia at 1 h” value in assay [7] (5 μl i.t., 100 nM AP, 30 min before capsaicin) was 16±4%. Besides, in assay [7] (100 nM AP), the “Time at which the effect is lost / not detected” value was 3 h. Besides, the “Time at which the effect is lost / not detected” value in assay [7] (100 nM AP, listed as AP) worked out at 1.5 h. Further, in assay [7] (single i.t. dose 30 minutes prior to capsaicin (Example 9)), the “Analgesia on the first hour” value worked out at 30%.
As to `CO/C1=C\C(C)=C\[C@@H](C)[C@@H](O)[C@@H](C)C/C(C)=C/C=C/[C@H](OC)[C@@H]([C@@H](C)[C@@H](O)[C@H](C)[C@@]2(O)C[C@@H](O)[C@H](C)[C@@H](C(C)C)O2)OC1=O` [Bafilomycin A1], the “Effect of inhibitor” value was “suppressed fluorescence” in the assay on HEK-293 cells and “inhibited the accumulation of Coumarin 153 cellular fluorescence” in the assay with HEK-293 cells (listed as Bafilomycin A).
With `Cl.N` [NH4Cl], the “Effect of inhibitor” value with HEK-293 cells was “suppressed fluorescence”.
